Results from ChEMBL document CHEMBL4480442, “Phloroglucinols with Immunosuppressive Activities from the Fruits of Eucalyptus globulus” (J Nat Prod, 2019).

Experiments:
[1] = […], ratio of CC50 for BALB/c mouse lymph node cells to IC50 for immunosuppressive activity in BALB/c mouse lymph node cells assessed as inhibition of concanavalin A stimulated T-cell proliferation
[2] = Immunosuppressive activity in BALB/c mouse lymph node cells assessed as inhibition of concanavalin A stimulated T-cell proliferation measured after 48 hrs by CCK8 assay; type: functional
[3] = Cytotoxicity against BALB/c mouse lymph node cells assessed as reduction in cell viability measured after 48 hrs by CCK8 assay; type: cell-based

SMILES | Ratio CC50/IC50 [1] | IC50 [2] | CC50 at 48 h [3]
CC(C)CC(=O)c1c(O)c(C=O)c(O)c(C[C@H]2CC[C@@](C)(O)C3[C@H]4[C@@H](CC[C@@]32C)C4(C)C)c1O (some centres not stated) | 16.9 | 35.3 µM | 598 µM
CC(C)C[C@@H]1c2c(O)c(C=O)c(O)c(C=O)c2O[C@]2(C)C=C[C@@](O)(C(C)C)CC12 (some centres not stated) | 64.2 | 10.2 µM | 656 µM
CC(C)C[C@H]1c2c(O)c(C=O)c(O)c(C=O)c2O[C@]23CC[C@@]1(C)C2[C@H]1[C@@H](CC[C@@H]3C)C1(C)C (some centres not stated) | 8.5 | 69.3 µM | 588 µM
CC(C)C[C@@H](c1c(O)c(C=O)c(O)c(C=O)c1O)C1CC[C@@H](C)C2=C[C@@H](C(C)(C)O)CC[C@@]21C (some centres not stated) | 14.2 | 42.4 µM | 602 µM
C=C1CC[C@@H]2[C@H](C3C1CC[C@]3(C)C(CC(C)C)c1c(O)c(C=O)c(O)c(C=O)c1O)C2(C)C (some centres not stated) | 8.3 | 69.6 µM | 541 µM
CC(C)C[C@H](c1c(O)c(C=O)c(O)c(C=O)c1O)C1CC[C@@H](C)C2=C[C@@H](C(C)(C)O)CC[C@@]21C (some centres not stated) | 10.4 | 52.3 µM | 544 µM
CC(C)CC(=O)c1c(O)c(C=O)c(O)c(C[C@H]2CC[C@H](C)C3=C[C@@H](C(C)(C)O)CC[C@@]32C)c1O | 30.2 | 19.1 µM | 578 µM
CO[C@]1(C)CC[C@@H]2[C@H]([C@H]3[C@H]1CC[C@]3(C)[C@@H](CC(C)C)c1c(O)c(C=O)c(O)c(C=O)c1O)C2(C)C | 8.5 | 68.4 µM | 578 µM
CCC(C)C(=O)c1c(O)c(C)c(OC)c(C)c1O (configuration not stated) | 8.9 | 70.2 µM | 623 µM
